Holding throughout (format): biochemical
Holding throughout (settings): 10 concentrations, 3-fold dilution

One assay deals with T1, MET F1200I (Homo sapiens, UniProt P08581, F1200I).
T1 construct: purchased Signalchem M52-12GG/Y767-2
Kind of assay: Kinase inhibition experiment (HTRF KinEASE-TK kit), mutant MET F1200I. The method, then: (§1) The activity of the compounds was determined by detecting the residual amount of ATP after reacting with wild-type or mutant MET protein kinase by using an HTRF KinEASE-TK kit. […]
(§2) The compounds were determined on the selected kinase, the solvent control was set and a total of 10 concentrations were detected, diluted 3-fold, 2 replicates per concentration.
(§3) 1 volume of 5× kinase reaction buffer and 4 volumes of water; 5 mM MgCl2; 1 mM DTT; 1 mM MnCl2; or 2500 nm SEB.
(§4) 1) 10 nl or 4 μlof the diluted compound was transferred to each well of the reaction plate (784075 or 264706, Greiner or Thermo) with a pipette, the reaction plate was sealed with a sealing plate, and centrifuged at 1000 for 1 minute.
(§5) 2) 2× MET was prepared from 1× enzyme reaction buffer, 5 μl or 2 μl kinase was added to each well of the reaction plate, the reaction plate was sealed with a sealing plate, centrifuged at 1000 g for 30 seconds and incubated at room temperature for 10 min.
(§6) 3) a mixed solution of 2× TK-substrate-biotin and ATP were prepared from 1× enzyme reaction buffer solution, 5 μl or 2 μl TK-substrate-biotin/ATP of the mixed solution was added into a reaction plate, the reaction plate was sealed with a sealing plate, centrifuged at 1000 g for 30 seconds and reacted for 50 minutes or 10 minutes at room temperature.
(§7) 4) a mixed solution of 4× or 2× Sa-XL 665 and TK-antibody-Cryptate were prepared from HTRF detection buffer, 5 or 10 μl of the mixed solution of Sa-XL 665 and TK-antibody-Cryptate was added into each well, centrifuged at 1000 g for 30 seconds, and reacted at room temperature for 1 h.
(§8) 5) the fluorescence signals at 615 nm (cryptate) and 665 nm (XL665) were read with Envision 2104 or TECAN.
(§9) The data was analyzed using GraphPad Prism 6.0 or 7 software, and the dose-response curve was fitted with nonlinear S-curve regression, and the IC50 value was calculated therefrom.
(§10) Enzyme Inhibition Percent (%)=100-(Signalmpd-SignalAve_PC)/(SignalAve_VC-SignalAve_PC)×100
A general note: In TR-FRET formats the signal depends on donor and acceptor labels being close together.

Another assay has as its target T2, MET D1228N (Homo sapiens, UniProt P08581, D1228N).
T2 construct: purchased Signalchem M52-12IG
Nature of the assay: Kinase inhibition experiment (HTRF KinEASE-TK kit), mutant MET D1228N. How it is done: as §1, §2, §3, §4, §5, §6, §7, §8, §9, §10

Assay [1] deals with T3, wild type (WT) MET kinase (Homo sapiens, UniProt P08581).
T3 construct: purchased Carna 08-151
T3 sequence (P08581 25-1390): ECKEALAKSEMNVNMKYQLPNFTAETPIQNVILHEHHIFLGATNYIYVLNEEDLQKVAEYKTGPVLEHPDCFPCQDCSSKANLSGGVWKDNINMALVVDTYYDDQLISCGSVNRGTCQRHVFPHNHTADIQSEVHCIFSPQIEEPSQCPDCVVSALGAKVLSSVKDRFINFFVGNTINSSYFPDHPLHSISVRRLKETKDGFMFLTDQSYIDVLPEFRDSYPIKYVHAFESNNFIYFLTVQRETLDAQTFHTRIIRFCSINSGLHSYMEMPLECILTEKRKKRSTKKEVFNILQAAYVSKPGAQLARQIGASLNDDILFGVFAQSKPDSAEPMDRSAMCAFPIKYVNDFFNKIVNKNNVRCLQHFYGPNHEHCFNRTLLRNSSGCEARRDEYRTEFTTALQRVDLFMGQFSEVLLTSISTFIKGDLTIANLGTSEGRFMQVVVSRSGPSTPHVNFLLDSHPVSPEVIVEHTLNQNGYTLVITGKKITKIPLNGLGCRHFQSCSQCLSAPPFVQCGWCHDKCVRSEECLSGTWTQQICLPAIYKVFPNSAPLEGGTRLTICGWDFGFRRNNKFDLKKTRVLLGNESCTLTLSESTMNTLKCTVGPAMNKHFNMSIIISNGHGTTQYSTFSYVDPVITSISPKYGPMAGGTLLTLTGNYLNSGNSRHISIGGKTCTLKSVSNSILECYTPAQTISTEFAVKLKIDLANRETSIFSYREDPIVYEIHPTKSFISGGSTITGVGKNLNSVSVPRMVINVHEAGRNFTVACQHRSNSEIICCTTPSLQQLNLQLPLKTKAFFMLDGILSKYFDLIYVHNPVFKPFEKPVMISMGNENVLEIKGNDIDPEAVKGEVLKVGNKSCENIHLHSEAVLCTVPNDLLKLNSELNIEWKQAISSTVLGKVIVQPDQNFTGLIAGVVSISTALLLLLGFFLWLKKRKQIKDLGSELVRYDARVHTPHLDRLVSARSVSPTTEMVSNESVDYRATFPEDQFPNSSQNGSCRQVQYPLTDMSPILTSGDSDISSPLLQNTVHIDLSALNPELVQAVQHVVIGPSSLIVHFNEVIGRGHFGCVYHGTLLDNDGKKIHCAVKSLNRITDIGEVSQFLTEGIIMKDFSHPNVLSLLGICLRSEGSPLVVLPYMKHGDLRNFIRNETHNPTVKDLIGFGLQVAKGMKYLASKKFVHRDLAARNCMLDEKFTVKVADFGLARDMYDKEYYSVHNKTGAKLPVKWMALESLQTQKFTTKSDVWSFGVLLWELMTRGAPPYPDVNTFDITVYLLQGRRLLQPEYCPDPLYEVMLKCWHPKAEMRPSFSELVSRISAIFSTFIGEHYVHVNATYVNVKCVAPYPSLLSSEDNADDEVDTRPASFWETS
Kind of assay: Kinase inhibition experiment (HTRF KinEASE-TK kit), wild-type MET. The method, then:
as §1, §2, §3, §4, §5, §6, §7, §8, §9, §10

T1 sequence (P08581 25-1390 F1200I): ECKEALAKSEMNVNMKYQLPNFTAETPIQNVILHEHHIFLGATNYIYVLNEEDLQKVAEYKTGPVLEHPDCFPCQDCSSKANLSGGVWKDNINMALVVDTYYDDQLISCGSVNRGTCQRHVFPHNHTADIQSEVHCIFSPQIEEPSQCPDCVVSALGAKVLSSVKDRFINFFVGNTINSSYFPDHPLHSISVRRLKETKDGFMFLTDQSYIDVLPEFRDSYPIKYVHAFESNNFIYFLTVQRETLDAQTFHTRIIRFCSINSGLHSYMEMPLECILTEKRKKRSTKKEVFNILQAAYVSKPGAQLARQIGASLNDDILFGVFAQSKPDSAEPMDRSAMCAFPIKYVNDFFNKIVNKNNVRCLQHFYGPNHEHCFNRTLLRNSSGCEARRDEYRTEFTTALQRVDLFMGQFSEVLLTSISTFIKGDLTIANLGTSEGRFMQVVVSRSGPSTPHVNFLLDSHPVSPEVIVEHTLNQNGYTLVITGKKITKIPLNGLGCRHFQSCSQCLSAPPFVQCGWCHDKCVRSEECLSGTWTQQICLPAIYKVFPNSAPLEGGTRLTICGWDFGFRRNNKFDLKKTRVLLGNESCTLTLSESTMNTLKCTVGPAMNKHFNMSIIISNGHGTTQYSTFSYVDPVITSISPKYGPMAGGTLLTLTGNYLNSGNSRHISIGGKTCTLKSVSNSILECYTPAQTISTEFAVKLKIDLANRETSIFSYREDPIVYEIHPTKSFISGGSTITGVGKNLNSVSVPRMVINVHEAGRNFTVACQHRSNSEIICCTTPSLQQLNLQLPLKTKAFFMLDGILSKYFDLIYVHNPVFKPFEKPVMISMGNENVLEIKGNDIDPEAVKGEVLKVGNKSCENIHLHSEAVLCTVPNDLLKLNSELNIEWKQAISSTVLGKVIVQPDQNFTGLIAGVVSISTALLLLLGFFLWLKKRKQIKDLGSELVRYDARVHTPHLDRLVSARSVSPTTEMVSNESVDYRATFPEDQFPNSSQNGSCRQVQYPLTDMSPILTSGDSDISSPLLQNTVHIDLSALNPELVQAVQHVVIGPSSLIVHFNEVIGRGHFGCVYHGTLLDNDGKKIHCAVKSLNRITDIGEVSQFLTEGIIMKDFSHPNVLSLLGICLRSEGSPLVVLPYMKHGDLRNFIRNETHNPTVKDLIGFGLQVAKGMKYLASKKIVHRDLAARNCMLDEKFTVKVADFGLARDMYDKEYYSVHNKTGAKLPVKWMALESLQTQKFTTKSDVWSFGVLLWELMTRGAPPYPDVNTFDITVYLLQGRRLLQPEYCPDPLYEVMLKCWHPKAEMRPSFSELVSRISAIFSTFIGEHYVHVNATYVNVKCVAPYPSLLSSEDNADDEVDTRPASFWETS
T2 sequence (P08581 25-1390 D1228N): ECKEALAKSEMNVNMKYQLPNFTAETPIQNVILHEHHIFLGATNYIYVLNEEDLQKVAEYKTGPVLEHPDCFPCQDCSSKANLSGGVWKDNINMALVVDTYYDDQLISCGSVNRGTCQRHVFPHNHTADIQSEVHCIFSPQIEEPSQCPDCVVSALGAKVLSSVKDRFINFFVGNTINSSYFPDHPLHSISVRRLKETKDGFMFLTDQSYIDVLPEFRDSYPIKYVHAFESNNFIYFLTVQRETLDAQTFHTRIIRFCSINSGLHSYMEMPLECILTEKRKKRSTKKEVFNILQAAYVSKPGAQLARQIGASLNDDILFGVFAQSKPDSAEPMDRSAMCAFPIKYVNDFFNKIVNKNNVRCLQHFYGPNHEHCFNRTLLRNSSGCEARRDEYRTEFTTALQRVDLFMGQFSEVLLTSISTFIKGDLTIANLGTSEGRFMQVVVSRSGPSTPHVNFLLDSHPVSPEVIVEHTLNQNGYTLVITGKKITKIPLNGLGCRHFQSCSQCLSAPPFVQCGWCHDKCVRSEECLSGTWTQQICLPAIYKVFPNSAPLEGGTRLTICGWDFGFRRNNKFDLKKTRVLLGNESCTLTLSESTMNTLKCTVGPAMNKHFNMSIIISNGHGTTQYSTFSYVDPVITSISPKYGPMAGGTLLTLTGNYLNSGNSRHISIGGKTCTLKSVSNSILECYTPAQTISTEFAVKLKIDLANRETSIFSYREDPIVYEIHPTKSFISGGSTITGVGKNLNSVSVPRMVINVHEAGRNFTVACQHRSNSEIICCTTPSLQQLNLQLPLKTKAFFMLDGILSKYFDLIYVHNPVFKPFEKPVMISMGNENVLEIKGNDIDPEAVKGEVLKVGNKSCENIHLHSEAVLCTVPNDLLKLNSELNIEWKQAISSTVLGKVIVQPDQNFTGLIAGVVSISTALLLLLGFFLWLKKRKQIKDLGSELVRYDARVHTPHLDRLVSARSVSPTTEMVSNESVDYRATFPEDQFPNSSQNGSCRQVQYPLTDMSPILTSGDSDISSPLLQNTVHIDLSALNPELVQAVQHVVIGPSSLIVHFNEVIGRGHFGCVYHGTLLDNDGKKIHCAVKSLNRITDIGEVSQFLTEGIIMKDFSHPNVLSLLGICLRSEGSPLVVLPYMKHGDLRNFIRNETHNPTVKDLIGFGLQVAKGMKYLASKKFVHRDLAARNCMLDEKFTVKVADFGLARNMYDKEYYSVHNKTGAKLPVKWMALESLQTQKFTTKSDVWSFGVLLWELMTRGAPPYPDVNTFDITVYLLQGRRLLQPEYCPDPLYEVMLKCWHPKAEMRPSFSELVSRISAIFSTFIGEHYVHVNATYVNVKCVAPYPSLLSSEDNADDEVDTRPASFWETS

A word on the IC50: it is the midpoint of a concentration-inhibition curve. A high value points to lower potency. Take `C[C@H](CO)Nc1n[nH]c2nccc(Oc3ccc(NC(=O)c4ccc(S(C)(=O)=O)c(-c5ccc(F)cc5)[n+]4[O-])cc3F)c12` [Final product 87]: the IC50 at MET F1200I stood at 23 nM; against MET D1228N it was 20.6 nM; in assay [1], 5.3 nM.

As to `C[C@H](CO)Nc1n[nH]c2nccc(Oc3ccc(NC(=O)c4ccc(Cl)c(-c5ccc(F)cc5Cl)[n+]4[O-])cc3F)c12` [Final product 66], the IC50 against MET F1200I came out at 35.5 nM; at MET D1228N, 11 nM; in assay [1] it was 2.7 nM.

As for `C[C@@H](CO)Nc1n[nH]c2nccc(Oc3ccc(NC(=O)c4cccc(-c5ccc(F)cc5)[n+]4[O-])cc3F)c12` [Final product 3], the IC50 against MET F1200I came to 18.3 nM; against MET D1228N, 13.1 nM; in assay [1], 4.3 nM.

Regarding `O=C(Nc1ccc(Oc2ccnc3[nH]nc(NC4(CO)CC4)c23)c(F)c1)c1cccc(-c2ccc(F)cc2)[n+]1[O-]` [Final product 22], the IC50 stood at 15.5 nM on MET F1200I, 25.5 nM on MET D1228N and 5.9 nM in assay [1].

As for `CC(O)CNc1n[nH]c2nccc(Oc3ccc(NC(=O)c4cccc(-c5ccc(F)cc5)[n+]4[O-])cc3F)c12` (stereo not drawn) [Final product 8], the IC50 came out at 2.3 nM against MET F1200I, 28.4 nM against MET D1228N and 4.6 nM in assay [1].

As to `C[C@H](CO)Nc1n[nH]c2nccc(Oc3ccc(NC(=O)c4ccc(Cl)c(-c5ccc(Cl)cc5)[n+]4[O-])cc3F)c12` [Final product 65], the results for the IC50 (at MET F1200I; at MET D1228N; in assay [1]) were 42.4 nM, 37.4 nM and 10.8 nM, respectively.

For the compound `O=C(Nc1ccc(Oc2ccnc3[nH]nc(N4CCO[C@@H](CO)C4)c23)c(F)c1)c1cccc(-c2ccc(F)cc2)[n+]1[O-]` [Final product 34], the IC50 on MET F1200I came out at 12.3 nM; against MET D1228N, 18.8 nM; in assay [1], 2.7 nM.

Consider `C[C@H](CO)Nc1n[nH]c2nccc(Oc3cc(F)c(NC(=O)c4ccc(Cl)c(-c5ccc(F)cc5)[n+]4[O-])cc3Cl)c12` [Final product 158], for which the IC50 came to 15.9 nM on MET F1200I, 29.4 nM against MET D1228N and 2.5 nM in assay [1].

In the case of `O=C(Nc1ccc(Oc2ccnc3[nH]nc(N[C@H]4CC[C@H](O)CC4)c23)c(F)c1)c1ccc(Cl)c(-c2ccc(F)cc2)[n+]1[O-]` [Final product 64], the IC50 at MET F1200I was found to be 22.5 nM; at MET D1228N, 45.6 nM.

Regarding `O=C(Nc1ccc(Oc2ccnc3[nH]nc(N[C@H]4COC[C@@H]4O)c23)c(Cl)c1)c1ccc(F)c(-c2ccc(F)cc2)[n+]1[O-]` [Final product 120], the figures for the IC50 (against MET F1200I; against MET D1228N; in assay [1]) were 14.5 nM, 17.6 nM and 1.3 nM, respectively.

Consider `O=C(Nc1ccc(Oc2ccnc3[nH]nc(NCC(O)C(F)(F)F)c23)c(F)c1)c1cccc(-c2ccc(F)cc2)[n+]1[O-]` (stereo not drawn) [Final product 11], for which the IC50 on MET F1200I came out at 16.8 nM; at MET D1228N it was 35.7 nM; in assay [1], 6.3 nM.

For `CC1(O)CCN(c2n[nH]c3nccc(Oc4ccc(NC(=O)c5cccc(-c6ccc(F)cc6)[n+]5[O-])cc4F)c23)CC1` [Final product 27], the IC50 against MET F1200I was 8.6 nM; against MET D1228N it was 13.4 nM; in assay [1] it was 4.5 nM.

On to `O=C(Nc1ccc(Oc2ccnc3[nH]nc(N[C@H]4CC[C@@H](O)C4)c23)c(Cl)c1)c1cccc(-c2ccc(F)cc2)[n+]1[O-]` [Final product 114], for which the figures for the IC50 (against MET F1200I; against MET D1228N; in assay [1]) were 10.7 nM, 18.7 nM and 5.1 nM, respectively.

For `CSc1ccc(C(=O)Nc2ccc(Oc3ccnc4[nH]nc(N[C@H](C)CO)c34)c(F)c2)[n+]([O-])c1-c1ccc(F)cc1` [Final product 86], the IC50 on MET F1200I was 29.7 nM; against MET D1228N it was 10.2 nM; in assay [1], 6.4 nM.

As to `COc1ccc2ncnc(Nc3ccc(NC(=O)c4cccc(-c5ccc(F)cc5)[n+]4[O-])cc3F)c2c1O[C@H](C)CO` [Final product 181, (R)-2-((3-fluoro-4-((5-((1-hydroxypropan-2-yl)oxy)-6-methoxyquinazolin-4-yl)amino)phenyl)carbamoyl)-6-(4-fluorophenyl)pyridine 1-oxide], the IC50 was 29.2 nM against MET D1228N and 11.7 nM in assay [1].

For `CCC(O)CNc1n[nH]c2nccc(Oc3ccc(NC(=O)c4cccc(-c5ccc(F)cc5)[n+]4[O-])cc3F)c12` (stereo not drawn) [Final product 9], the figures for the IC50 (on MET F1200I; on MET D1228N; in assay [1]) were 20.8 nM, 25.6 nM and 3.8 nM, respectively.

`C[C@H](CO)Nc1n[nH]c2nccc(Oc3ccc(NC(=O)c4ccc(OCC(F)(F)F)c(-c5ccc(F)cc5)[n+]4[O-])cc3Cl)c12` [Final product 142]: the IC50 was 33 nM against MET F1200I, 45.1 nM at MET D1228N and 18 nM in assay [1].

Consider `O=C(Nc1ccc(Oc2ccnc3[nH]nc(N4CCC(O)CC4)c23)c(F)c1)c1cccc(-c2ccc(F)cc2)[n+]1[O-]` [Final product 26, 2-((3-fluoro-4-((3-(4-hydroxypiperidin-1-yl)-1H-pyrazolo[3,4-b]pyridin-4-yl)oxy)phenyl)carbamoyl)-6-(4-fluorophenyl)pyridine 1-oxide], for which the IC50 against MET F1200I was 9.5 nM; against MET D1228N, 18.1 nM; in assay [1], 3.8 nM.

Take `C[C@H](CO)Nc1n[nH]c2nccc(Oc3ccc(NC(=O)c4ccc(C5CC5)c(-c5ccc(F)cc5)[n+]4[O-])cc3F)c12` [Final product 81]: the IC50 on MET F1200I was 26 nM; against MET D1228N, 32.8 nM; in assay [1], 10.4 nM.

Turning to `C[C@@H](CO)Cn1ccc2ncnc(Oc3ccc(NC(=O)c4cccc(-c5ccc(F)cc5)[n+]4[O-])cc3F)c21` [Final product 170, (R)-2-((3-fluoro-4-((5-(3-hydroxy-2-methylpropyl)-5H-pyrrolo[3,2-d]pyrimidin-4-yl)oxy)phenyl)carbamoyl)-6-(4-fluorophenyl)pyridine 1-oxide], the results for the IC50 (against MET F1200I; against MET D1228N; in assay [1]) were 8.5 nM, 16.2 nM and 4.2 nM, respectively.

Take `C[C@H](CO)Nc1n[nH]c2nccc(Oc3ccc(NC(=O)c4ccc(F)c(-c5ccc(Cl)cc5)[n+]4[O-])cc3F)c12` [Final product 56]: the IC50 at MET F1200I came to 14.4 nM; against MET D1228N, 17.7 nM; in assay [1], 5 nM.

For the compound `O=C(Nc1ccc(Oc2ccnc3[nH]nc(N[C@H]4CC[C@@H](O)C4)c23)c(Cl)c1)c1ccc(F)c(-c2ccc(F)cc2)[n+]1[O-]` [Final product 119], the IC50 came to 9.8 nM against MET F1200I, 30.2 nM against MET D1228N and 18 nM in assay [1].

Take `CC1(CO)CCN(c2n[nH]c3nccc(Oc4ccc(NC(=O)c5cccc(-c6ccc(F)cc6)[n+]5[O-])cc4F)c23)CC1` [Final product 29]: the values for the IC50 (against MET F1200I; on MET D1228N; in assay [1]) were 20.4 nM, 15.8 nM and 5.2 nM, respectively.

For the compound `O=C(Nc1ccc(Oc2ccnc3[nH]nc(N[C@H]4C[C@H](O)C4)c23)c(F)c1)c1cccc(-c2ccc(F)cc2)[n+]1[O-]` [Final product 23], the figures for the IC50 (against MET F1200I; on MET D1228N; in assay [1]) were 12.5 nM, 21 nM and 3.3 nM, respectively.

Take `O=C(Nc1ccc(Oc2ccnc3[nH]nc(N4CCO[C@H](CO)C4)c23)c(F)c1)c1cccc(-c2ccc(F)cc2)[n+]1[O-]` [Final product 35]: the IC50 against MET F1200I is 17.9 nM; at MET D1228N, 14.7 nM; in assay [1], 2 nM.

Consider `C[C@H](CO)Nc1n[nH]c2nccc(Oc3ccc(NC(=O)c4ccc(C#N)c(-c5ccc(F)cc5)[n+]4[O-])cc3F)c12` [Final product 83], for which the IC50 at MET F1200I is 6.2 nM; against MET D1228N it was 30.4 nM; in assay [1] it was 3.2 nM.

Consider `[2H]C([2H])([2H])c1ccc(C(=O)Nc2ccc(Oc3ccnc4[nH]nc(N[C@H](C)CO)c34)c(Cl)c2)[n+]([O-])c1-c1ccc(F)cc1` [Final product 134], for which the results for the IC50 (against MET F1200I; on MET D1228N; in assay [1]) were 28.3 nM, 15.5 nM and 3.3 nM, respectively.

As for `O=C(Nc1ccc(Oc2ccnc3[nH]nc(NCC4(CO)CC(O)C4)c23)c(F)c1)c1cccc(-c2ccc(F)cc2)[n+]1[O-]` (stereo not drawn) [Final product 20], the results for the IC50 (on MET F1200I; on MET D1228N; in assay [1]) were 20.1 nM, 29.9 nM and 6.9 nM, respectively.

Take `CC[C@@H](CO)Nc1n[nH]c2nccc(Oc3ccc(NC(=O)c4cccc(-c5ccc(F)cc5)[n+]4[O-])cc3F)c12` [Final product 6]: the figures for the IC50 (on MET F1200I; against MET D1228N; in assay [1]) were 21.4 nM, 30 nM and 8.5 nM, respectively.

With `C[C@H](CO)Nc1n[nH]c2nccc(Oc3ccc(NC(=O)c4cc(C5CC5)cc(-c5ccc(F)cc5)[n+]4[O-])cc3F)c12` [Final product 91], the results for the IC50 (against MET D1228N; in assay [1]) were 41.2 nM and 12.1 nM, respectively.

The values are drawn from patent US20250092033A1, “HETEROAROMATIC NITROGEN-OXIDE COMPOUND, PREPARATION METHOD THEREFOR, AND USE THEREOF” (BEIJING AVISTONE BIOTECHNOLOGY CO., LTD., priority 2021, published 2025).
